Test results reported in US20100150839A1, “Compositions and Methods for Modulating Cognitive Function” (Massachusetts Institute of Technology, priority 2005, published 2010).

Tested on: cultured primary hippocampal neurons
Test: Translation reporter assay: EGFP-αCaMKII 3′ UTR reporter mRNA transfected into neurons
Format: cell-based, rat

In the case of `N#CC(=C(/N)Sc1ccccc1N)/C(C#N)=C(\N)Sc1ccccc1N` [U0126], the “Translation of EGFP-αCaMKII-A20 reporter mRNA” value is reported as “still more strongly inhibited”.
